Experimental data taken from publication PMC7303124, “RPamide neuropeptides NLP-22 and NLP-2 act through GnRH-like receptors to promote sleep and wakefulness in C. elegans” (Scientific Reports, 2020).
Where “and” joins values, the source holds several entries; their conditions need not be identical. Equal values may be shown once. Where a SMILES comes first, the peptide text is derived from it.

Tests used:
GNRR-3 = target: T1, GNRR-3 (Caenorhabditis elegans, UniProt Q23265); test: Receptor activation assay (aequorin calcium mobilization), GNRR-3 co-expressed with promiscuous Gα16 in CHO cells; format: cell-based, C. elegans; settings: for EC50: CHO cells stably expressing apo-aequorin and Gα16, transiently transfected receptor, aequorin luminescence relative to total calcium response, mean EC50, N = 5–7 replicates, 95% confidence interval given; for Activation of GNRR-3 (in words): CHO/apo-aequorin/Gα16 calcium mobilization assay, peptides initially tested at 10 µM
T1 sequence (Q23265 1-395): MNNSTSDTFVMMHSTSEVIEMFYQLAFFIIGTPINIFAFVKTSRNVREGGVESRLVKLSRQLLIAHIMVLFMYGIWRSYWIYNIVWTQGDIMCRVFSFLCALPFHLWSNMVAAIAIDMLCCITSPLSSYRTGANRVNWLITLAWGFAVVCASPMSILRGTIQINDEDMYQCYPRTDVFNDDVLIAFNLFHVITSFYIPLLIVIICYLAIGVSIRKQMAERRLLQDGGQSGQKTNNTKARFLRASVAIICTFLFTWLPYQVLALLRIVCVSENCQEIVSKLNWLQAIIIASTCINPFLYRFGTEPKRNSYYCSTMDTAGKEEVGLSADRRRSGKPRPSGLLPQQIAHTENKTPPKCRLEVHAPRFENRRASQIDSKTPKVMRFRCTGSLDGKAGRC
Text: (§1) We tested a C. elegans peptide library for the ability to activate these seven receptors using an in vitro calcium mobilization assay. We cloned and transiently expressed each of the seven GNRRs in Chinese hamster ovary (CHO) cells stably expressing apo-aequorin and the human promiscuous Gα16 protein. These cells were challenged with a synthetic library of over 340 C. elegans peptides of the RFamide (FLP) and neuropeptide-like protein (NLP) families. […] Peptides encoded by nlp-2 and nlp-23 potently activated GNRR-3 with EC50 values in the nanomolar range. By contrast, NLP-22 activated GNRR-3 with far lower potency (EC50 value > 6 µM), which may be physiologically irrelevant. GNRR-6 was potently activated by NLP-22 and NLP-23 peptides. Peptides encoded by nlp-2 also activated GNRR-6, although with a higher EC50 value than NLP-22 and NLP-23. […] In short, we identified the neuropeptides encoded by nlp-2, nlp-22 and nlp-23 as bioactive ligands of the GnRH/AKH-like receptors GNRR-3 and GNRR-6 in vitro.
(§2) Figure 2 NLP-2, NLP-22, and NLP-23 peptides activate GNRR-3 and GNRR-6 in vitro. Dose-response curves for GNRR-3 (A) and GNRR-6 (B) co-expressed in CHO cells with a promiscuous Gα16 protein are shown as relative (%) to the highest value (100% activation) after normalization to the total calcium response. Each data point represents the mean ± SEM of N = 5–7 replicates for each peptide. (C) Amino acid (AA) sequences of RPamide neuropeptides activating GNRR-3 and GNRR-6 with their respective mean EC50 values and 95% Confidence intervals.
(§3) Peptides were custom-synthesized by GL Biochem Ltd. All peptides were initially tested at a concentration of 10 µM. Receptor activating peptides were purified using reverse-phase HPLC and verified using MALDI TOF mass spectrometry. Peptide concentrations were determined with a bicinchoninic acid (BCA) assay. For receptor activation assays, peptides were first lyophilized and then diluted to the desired concentrations.
(§4) Chinese hamster ovary (CHO) cells stably expressing apo-aequorin and the promiscuous Gα16 subunit were used for receptor deorphanization (ES-000-A24, Perkin-Elmer). To characterize downstream signaling, CHO cells stably expressing apo-aequorin but lacking the promiscuous Gα16 protein were used (ES-000-A12, Perkin-Elmer). Cells were cultured in Dulbecco’s Modified Eagle’s Medium Nutrient Mixture Ham F-12 (DMEM/F-12, Invitrogen) to which 1% penicillin/streptomycin, 2.5 µg/ml amphotericin B, and 10% fetal bovine serum (Sigma-Aldrich) were added. Growth medium was supplemented with 250 µg/ml zeocin or 5 µg/ml puromycin, which serves as a selection reagent for CHO cells with or without the promiscuous Gα16 subunit, respectively. Cells were grown as a monolayer at 37 °C, 5% CO2 and high humidity. For transfection, 3.75 ml Opti-MEM I (Invitrogen), 7.5 µg pcDNA3.1 construct and 18.75 µl Plus reagent (Invitrogen) were gently mixed in a polystyrene tube. After incubation for 5 minutes at room temperature, 45 µl Lipofectamine LTX (Invitrogen) was added and gently mixed. The transfection reagent was incubated for 30 min at room temperature. Growth medium was removed leaving 3 ml and the transfection reagents were added dropwise to the cells. Transfected cells were grown overnight and 20 ml growth medium was added the next day. Cells were grown one more day before the assay at 28 °C.
(§5) Two days after transfection, CHO cells were detached from the surface of the culture flask using phosphate buffered saline with 0.2% EDTA and collected in 10 ml colorless DMEM/F-12 (11039, Gibco). Cell viability was measured using a NucleoCounter NC-100 (Chemometic). Cells were pelleted for 4 min at 800 rpm at room temperature and resuspended to a concentration of 5 × 10^6 cells/ml in colorless DMEM/F12 with 0.1% bovine serum albumin (BSA). 5 µM coelenterazine H (Invitrogen) was added to the cell suspension. […]

GNRR-6 = target: T2, GNRR-6 (Caenorhabditis elegans, UniProt Q19399); test: Receptor activation assay (aequorin calcium mobilization), GNRR-6 co-expressed with promiscuous Gα16 in CHO cells; format: cell-based, C. elegans; settings: for EC50: CHO cells stably expressing apo-aequorin and Gα16, transiently transfected receptor, aequorin luminescence relative to total calcium response, mean EC50, N = 5–7 replicates, 95% confidence interval given; for Activation of GNRR-6 (in words): CHO/apo-aequorin/Gα16 calcium mobilization assay, peptides initially tested at 10 µM
T2 sequence (Q19399 1-400): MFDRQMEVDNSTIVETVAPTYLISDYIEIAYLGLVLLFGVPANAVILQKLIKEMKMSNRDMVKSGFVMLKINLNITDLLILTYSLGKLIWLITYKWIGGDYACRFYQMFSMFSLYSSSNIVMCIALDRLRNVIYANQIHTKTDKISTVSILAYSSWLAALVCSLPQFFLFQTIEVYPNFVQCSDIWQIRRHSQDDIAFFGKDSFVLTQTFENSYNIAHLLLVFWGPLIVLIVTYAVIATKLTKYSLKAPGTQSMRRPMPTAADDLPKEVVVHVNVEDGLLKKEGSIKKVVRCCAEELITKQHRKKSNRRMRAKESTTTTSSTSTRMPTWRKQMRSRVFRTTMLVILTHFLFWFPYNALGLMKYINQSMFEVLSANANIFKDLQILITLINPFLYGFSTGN
Text: as §1, §2, §3, §4, §5

Row | Molecule | EC50 (GNRR-3) | Activation of GNRR-3 (in words) (GNRR-3) | EC50 (GNRR-6) | Activation of GNRR-6 (in words) (GNRR-6)
1 | CC[C@H](C)[C@H](NC(=O)[C@@H](N)CO)C(=O)N[C@@H](C)C(=O)N[C@@H](CC(C)C)C(=O)NCC(=O)N[C@@H](CCCNC(=N)N)C(=O)N[C@@H](CO)C(=O)NCC(=O)N[C@@H](Cc1ccccc1)C(=O)N[C@@H](CCCNC(=N)N)C(=O)N1CCC[C@H]1C(N)=O [NLP-2-1] (H-SIALGRSGFRP-NH2; N-terminus assumed) | 81000 nM | activated these receptors in a dose-dependent manner | 135 nM | activated these receptors in a dose-dependent manner
2 | CC[C@H](C)[C@H](NC(=O)[C@H](C)NC(=O)[C@@H](NC(=O)[C@@H](N)CO)[C@@H](C)CC)C(=O)NCC(=O)N[C@@H](CCCNC(=N)N)C(=O)N[C@@H](C)C(=O)NCC(=O)N[C@@H](Cc1ccccc1)C(=O)N[C@@H](CCCNC(=N)N)C(=O)N1CCC[C@H]1C(N)=O [NLP-22] (H-SIAIGRAGFRP-NH2; N-terminus assumed) | > 6000 nM and 6700 nM | activated these receptors in a dose-dependent manner | 4.1 nM | activated these receptors in a dose-dependent manner
3 | CSCC[C@H](NC(=O)[C@@H](N)CO)C(=O)N[C@@H](C)C(=O)N[C@@H](Cc1ccc(O)cc1)C(=O)NCC(=O)N[C@@H](CCCNC(=N)N)C(=O)N[C@@H](CCC(N)=O)C(=O)NCC(=O)N[C@@H](Cc1ccccc1)C(=O)N[C@@H](CCCNC(=N)N)C(=O)N1CCC[C@H]1C(N)=O [NLP-2-3] (H-SMAYGRQGFRP-NH2; N-terminus assumed) | 3300 nM | activated these receptors in a dose-dependent manner | 169 nM | activated these receptors in a dose-dependent manner
4 | LYISRQGFRPA [NLP-23-1, NLP-23 derived peptide … lacking the C-terminal glycine amidation target] |  | did not activate |  | did not activate
5 | CC[C@H](C)[C@H](NC(=O)[C@H](C)NC(=O)[C@H](CCSC)NC(=O)[C@@H](N)CO)C(=O)NCC(=O)N[C@@H](CCCNC(=N)N)C(=O)N[C@@H](C)C(=O)NCC(=O)N[C@@H](CCSC)C(=O)N[C@@H](CCCNC(=N)N)C(=O)N1CCC[C@H]1C(N)=O [NLP-23-2] (H-SMAIGRAGMRP-NH2; N-terminus assumed) | 158 nM | activated these receptors in a dose-dependent manner | 6 nM | activated these receptors in a dose-dependent manner
6 | CSCC[C@H](NC(=O)[C@H](C)NC(=O)[C@H](CCSC)NC(=O)[C@@H](N)CO)C(=O)NCC(=O)N[C@@H](CCCNC(=N)N)C(=O)N[C@@H](CC(C)C)C(=O)NCC(=O)N[C@@H](CC(C)C)C(=O)N[C@@H](CCCNC(=N)N)C(=O)N1CCC[C@H]1C(N)=O [NLP-2-2] (H-SMAMGRLGLRP-NH2; N-terminus assumed) | 558 nM | activated these receptors in a dose-dependent manner | 542 nM | activated these receptors in a dose-dependent manner
